Test results published in ChEMBL document CHEMBL3272333, “Synthesis and biologic distribution of radioiodinated beta-adrenergic antagonists” (J Med Chem, 1978).

How the values were obtained:
Set-up in all cases: dose 0.5-1 mg/kg, route intravenous
Bone [1] = test: Biodistribution in Sprague-Dawley rat bone at 0.5 to 1 mg/kg, iv after 15 mins by gamma-well counting analysis; format: ADME, organism-based, Bone element; details: in vivo, 0.25 h
Stomach [2] = test: Biodistribution in Sprague-Dawley rat stomach assessed per organ at 0.5 to 1 mg/kg, iv after 15 mins by gamma-well counting analysis; format: ADME, organism-based; details: in vivo, 0.25 h
[3] = Biodistribution in Sprague-Dawley rat fat and fur assessed per organ at 0.5 to 1 mg/kg, iv after 15 mins by gamma-well counting analysis; format: ADME, organism-based, Adipose tissue; details: in vivo, 0.25 h
Kidney [4] = test: Biodistribution in Sprague-Dawley rat kidney at 0.5 to 1 mg/kg, iv after 1 hr by gamma-well counting analysis; format: ADME, organism-based; details: in vivo
Muscle tissue [5] = test: Biodistribution in Sprague-Dawley rat muscle assessed per organ at 0.5 to 1 mg/kg, iv after 1 hr by gamma-well counting analysis; format: ADME, organism-based; details: in vivo
Heart [6] = test: Biodistribution in Sprague-Dawley rat heart assessed per organ at 0.5 to 1 mg/kg, iv after 15 mins by gamma-well counting analysis; format: ADME, organism-based; details: in vivo, 0.25 h
Kidney [7] = test: Biodistribution in Sprague-Dawley rat kidney at 0.5 to 1 mg/kg, iv after 15 mins by gamma-well counting analysis; format: ADME, organism-based; details: in vivo, 0.25 h
Muscle tissue [8] = test: Biodistribution in Sprague-Dawley rat muscle at 0.5 to 1 mg/kg, iv after 15 mins by gamma-well counting analysis; format: ADME, organism-based; details: in vivo, 0.25 h
Large intestine [9] = test: Biodistribution in Sprague-Dawley rat large intestine assessed per organ at 0.5 to 1 mg/kg, iv after 1 hr by gamma-well counting analysis; format: ADME, organism-based; details: in vivo
Blood [10] = test: Biodistribution in Sprague-Dawley rat blood assessed per organ at 0.5 to 1 mg/kg, iv after 15 mins by gamma-well counting analysis; format: ADME, organism-based; details: in vivo, 0.25 h
Small intestine [11] = test: Biodistribution in Sprague-Dawley rat small intestine assessed per organ at 0.5 to 1 mg/kg, iv after 1 hr by gamma-well counting analysis; format: ADME, organism-based; details: in vivo
Thyroid gland [12] = test: Biodistribution in Sprague-Dawley rat thyroid assessed per organ at 0.5 to 1 mg/kg, iv after 1 hr by gamma-well counting analysis; format: ADME, organism-based; details: in vivo
Bone [13] = test: Biodistribution in Sprague-Dawley rat bone at 0.5 to 1 mg/kg, iv after 1 hr by gamma-well counting analysis; format: ADME, organism-based, Bone element; details: in vivo
Lung [14] = test: Biodistribution in Sprague-Dawley rat lung assessed per organ at 0.5 to 1 mg/kg, iv after 15 mins by gamma-well counting analysis; format: ADME, organism-based; details: in vivo, 0.25 h
Liver [15] = test: Biodistribution in Sprague-Dawley rat liver at 0.5 to 1 mg/kg, iv after 1 hr by gamma-well counting analysis; format: ADME, organism-based; details: in vivo
[16] = Biodistribution in Sprague-Dawley rat fat and fur assessed per organ at 0.5 to 1 mg/kg, iv after 1 hr by gamma-well counting analysis; format: ADME, organism-based, Adipose tissue; details: in vivo
Liver [17] = test: Biodistribution in Sprague-Dawley rat liver assessed per organ at 0.5 to 1 mg/kg, iv after 1 hr by gamma-well counting analysis; format: ADME, organism-based; details: in vivo
Bone [18] = test: Biodistribution in Sprague-Dawley rat bone assessed per organ at 0.5 to 1 mg/kg, iv after 1 hr by gamma-well counting analysis; format: ADME, organism-based, Bone element; details: in vivo
Liver [19] = test: Biodistribution in Sprague-Dawley rat liver at 0.5 to 1 mg/kg, iv after 15 mins by gamma-well counting analysis; format: ADME, organism-based; details: in vivo, 0.25 h
Heart [20] = test: Biodistribution in Sprague-Dawley rat heart at 0.5 to 1 mg/kg, iv after 1 hr by gamma-well counting analysis; format: ADME, organism-based; details: in vivo
Kidney [21] = test: Biodistribution in Sprague-Dawley rat kidney assessed per organ at 0.5 to 1 mg/kg, iv after 15 mins by gamma-well counting analysis; format: ADME, organism-based; details: in vivo, 0.25 h
Spleen [22] = test: Biodistribution in Sprague-Dawley rat spleen assessed per organ at 0.5 to 1 mg/kg, iv after 1 hr by gamma-well counting analysis; format: ADME, organism-based; details: in vivo
Muscle tissue [23] = test: Biodistribution in Sprague-Dawley rat muscle at 0.5 to 1 mg/kg, iv after 1 hr by gamma-well counting analysis; format: ADME, organism-based; details: in vivo
Thyroid gland [24] = test: Biodistribution in Sprague-Dawley rat thyroid assessed per organ at 0.5 to 1 mg/kg, iv after 15 mins by gamma-well counting analysis; format: ADME, organism-based; details: in vivo, 0.25 h
Spleen [25] = test: Biodistribution in Sprague-Dawley rat spleen at 0.5 to 1 mg/kg, iv after 1 hr by gamma-well counting analysis; format: ADME, organism-based; details: in vivo
Heart [26] = test: Biodistribution in Sprague-Dawley rat heart assessed per organ at 0.5 to 1 mg/kg, iv after 1 hr by gamma-well counting analysis; format: ADME, organism-based; details: in vivo
Thyroid gland [27] = test: Biodistribution in Sprague-Dawley rat thyroid at 0.5 to 1 mg/kg, iv after 15 mins by gamma-well counting analysis; format: ADME, organism-based; details: in vivo, 0.25 h
Large intestine [28] = test: Biodistribution in Sprague-Dawley rat large intestine assessed per organ at 0.5 to 1 mg/kg, iv after 15 mins by gamma-well counting analysis; format: ADME, organism-based; details: in vivo, 0.25 h
Lung [29] = test: Biodistribution in Sprague-Dawley rat lung at 0.5 to 1 mg/kg, iv after 1 hr by gamma-well counting analysis; format: ADME, organism-based; details: in vivo
Liver [30] = test: Biodistribution in Sprague-Dawley rat liver assessed per organ at 0.5 to 1 mg/kg, iv after 15 mins by gamma-well counting analysis; format: ADME, organism-based; details: in vivo, 0.25 h
Bone [31] = test: Biodistribution in Sprague-Dawley rat bone assessed per organ at 0.5 to 1 mg/kg, iv after 15 mins by gamma-well counting analysis; format: ADME, organism-based, Bone element; details: in vivo, 0.25 h
Spleen [32] = test: Biodistribution in Sprague-Dawley rat spleen assessed per organ at 0.5 to 1 mg/kg, iv after 15 mins by gamma-well counting analysis; format: ADME, organism-based; details: in vivo, 0.25 h
Spleen [33] = test: Biodistribution in Sprague-Dawley rat spleen at 0.5 to 1 mg/kg, iv after 15 mins by gamma-well counting analysis; format: ADME, organism-based; details: in vivo, 0.25 h
Lung [34] = test: Biodistribution in Sprague-Dawley rat lung at 0.5 to 1 mg/kg, iv after 15 mins by gamma-well counting analysis; format: ADME, organism-based; details: in vivo, 0.25 h
Blood [35] = test: Biodistribution in Sprague-Dawley rat blood at 0.5 to 1 mg/kg, iv after 15 mins by gamma-well counting analysis; format: ADME, organism-based; details: in vivo, 0.25 h
Blood [36] = test: Biodistribution in Sprague-Dawley rat blood at 0.5 to 1 mg/kg, iv after 1 hr by gamma-well counting analysis; format: ADME, organism-based; details: in vivo
Thyroid gland [37] = test: Biodistribution in Sprague-Dawley rat thyroid at 0.5 to 1 mg/kg, iv after 1 hr by gamma-well counting analysis; format: ADME, organism-based; details: in vivo
Small intestine [38] = test: Biodistribution in Sprague-Dawley rat small intestine assessed per organ at 0.5 to 1 mg/kg, iv after 15 mins by gamma-well counting analysis; format: ADME, organism-based; details: in vivo, 0.25 h
Lung [39] = test: Biodistribution in Sprague-Dawley rat lung assessed per organ at 0.5 to 1 mg/kg, iv after 1 hr by gamma-well counting analysis; format: ADME, organism-based; details: in vivo
Stomach [40] = test: Biodistribution in Sprague-Dawley rat stomach assessed per organ at 0.5 to 1 mg/kg, iv after 1 hr by gamma-well counting analysis; format: ADME, organism-based; details: in vivo
Muscle tissue [41] = test: Biodistribution in Sprague-Dawley rat muscle assessed per organ at 0.5 to 1 mg/kg, iv after 15 mins by gamma-well counting analysis; format: ADME, organism-based; details: in vivo, 0.25 h
Blood [42] = test: Biodistribution in Sprague-Dawley rat blood assessed per organ at 0.5 to 1 mg/kg, iv after 1 hr by gamma-well counting analysis; format: ADME, organism-based; details: in vivo
Kidney [43] = test: Biodistribution in Sprague-Dawley rat kidney assessed per organ at 0.5 to 1 mg/kg, iv after 1 hr by gamma-well counting analysis; format: ADME, organism-based; details: in vivo
Heart [44] = test: Biodistribution in Sprague-Dawley rat heart at 0.5 to 1 mg/kg, iv after 15 mins by gamma-well counting analysis; format: ADME, organism-based; details: in vivo, 0.25 h

## CC(C)NCC(O)COc1ccc([125I])c2ccccc12 (racemic)
Bone [1]
  Drug uptake: 0.16 % ID/g
Stomach [2]
  Drug uptake: 1.99 %ID
[3]
  Drug uptake: 8.82 %ID
Kidney [4]
  Drug uptake: 0.76 % ID/g
Muscle tissue [5]
  Drug uptake: 10.71 %ID
Heart [6]
  Drug uptake: 0.26 %ID
Kidney [7]
  Drug uptake: 0.98 % ID/g
Muscle tissue [8]
  Drug uptake: 0.2 % ID/g
Large intestine [9]
  Drug uptake: 0.91 %ID
Blood [10]
  Drug uptake: 1.87 %ID
Small intestine [11]
  Drug uptake: 16.23 %ID
Thyroid gland [12]
  Drug uptake: 0.14 %ID
Bone [13]
  Drug uptake: 0.12 % ID/g
Lung [14]
  Drug uptake: 3.9 %ID
Liver [15]
  Drug uptake: 0.66 % ID/g
[16]
  Drug uptake: 9.69 %ID
Liver [17]
  Drug uptake: 7.08 %ID
Bone [18]
  Drug uptake: 1.84 %ID
Liver [19]
  Drug uptake: 0.74 % ID/g
Heart [20]
  Drug uptake: 0.19 % ID/g
Kidney [21]
  Drug uptake: 1.83 %ID
Spleen [22]
  Drug uptake: 0.4 %ID
Muscle tissue [23]
  Drug uptake: 0.1 % ID/g
Thyroid gland [24]
  Drug uptake: 0.06 %ID
Spleen [25]
  Drug uptake: 0.6 % ID/g
Heart [26]
  Drug uptake: 0.16 %ID
Thyroid gland [27]
  Drug uptake: 2.76 % ID/g
Large intestine [28]
  Drug uptake: 1.41 %ID
Lung [29]
  Drug uptake: 2.01 % ID/g
Liver [30]
  Drug uptake: 7.3 %ID
Bone [31]
  Drug uptake: 2.52 %ID
Spleen [32]
  Drug uptake: 0.52 %ID
Spleen [33]
  Drug uptake: 1.15 % ID/g
Lung [34]
  Drug uptake: 2.58 % ID/g
Blood [35]
  Drug uptake: 0.12 % ID/g
Blood [36]
  Drug uptake: 0.1 % ID/g
Thyroid gland [37]
  Drug uptake: 6.85 % ID/g
Small intestine [38]
  Drug uptake: 12.98 %ID
Lung [39]
  Drug uptake: 2.78 %ID
Stomach [40]
  Drug uptake: 2.24 %ID
Muscle tissue [41]
  Drug uptake: 19.67 %ID
Blood [42]
  Drug uptake: 1.44 %ID
Kidney [43]
  Drug uptake: 1.58 %ID
Heart [44]
  Drug uptake: 0.35 % ID/g

## CC(C)NCC(O)COc1ccc(NC(=O)c2cccc([125I])c2)cc1 (racemic)
Bone [1]
  Drug uptake: 0.21 % ID/g
Stomach [2]
  Drug uptake: 0.71 %ID
[3]
  Drug uptake: 5.87 %ID
Kidney [4]
  Drug uptake: 1.27 % ID/g
Muscle tissue [5]
  Drug uptake: 15.96 %ID
Heart [6]
  Drug uptake: 0.64 %ID
Kidney [7]
  Drug uptake: 1.82 % ID/g
Muscle tissue [8]
  Drug uptake: 0.2 % ID/g
Large intestine [9]
  Drug uptake: 0.94 %ID
Blood [10]
  Drug uptake: 0.79 %ID
Small intestine [11]
  Drug uptake: 5.49 %ID
Thyroid gland [12]
  Drug uptake: 0.07 %ID
Bone [13]
  Drug uptake: 0.18 % ID/g
Lung [14]
  Drug uptake: 1.89 %ID
Liver [15]
  Drug uptake: 1.39 % ID/g
[16]
  Drug uptake: 7.19 %ID
Liver [17]
  Drug uptake: 15.97 %ID
Bone [18]
  Drug uptake: 2.44 %ID
Liver [19]
  Drug uptake: 1.76 % ID/g
Heart [20]
  Drug uptake: 0.51 % ID/g
Kidney [21]
  Drug uptake: 3.45 %ID
Spleen [22]
  Drug uptake: 0.6 %ID
Muscle tissue [23]
  Drug uptake: 0.17 % ID/g
Thyroid gland [24]
  Drug uptake: 0.1 %ID
Spleen [25]
  Drug uptake: 1.14 % ID/g
Heart [26]
  Drug uptake: 0.35 %ID
Thyroid gland [27]
  Drug uptake: 4.73 % ID/g
Large intestine [28]
  Drug uptake: 0.56 %ID
Lung [29]
  Drug uptake: 1.82 % ID/g
Liver [30]
  Drug uptake: 18.94 %ID
Bone [31]
  Drug uptake: 2.93 %ID
Spleen [32]
  Drug uptake: 0.8 %ID
Spleen [33]
  Drug uptake: 1.33 % ID/g
Lung [34]
  Drug uptake: 1.24 % ID/g
Blood [35]
  Drug uptake: 0.06 % ID/g
Blood [36]
  Drug uptake: 0.06 % ID/g
Thyroid gland [37]
  Drug uptake: 3.58 % ID/g
Small intestine [38]
  Drug uptake: 2.45 %ID
Lung [39]
  Drug uptake: 2.19 %ID
Stomach [40]
  Drug uptake: 0.7 %ID
Muscle tissue [41]
  Drug uptake: 18.27 %ID
Blood [42]
  Drug uptake: 0.86 %ID
Kidney [43]
  Drug uptake: 2.3 %ID
Heart [44]
  Drug uptake: 0.89 % ID/g
